According to patent US4216221A, “1,3-Disubstituted (2-thio)ureas” (U C B, Societe Anonyme, priority 1977, dated 1980):
Read-outs that look alike come from different tables or passages of the source.

Experiments:
[1] = active avoidance test (memory retention; paw withdrawal reaction threshold); assay type: in vivo, rat; settings: for minimal effective dose: sc
Excerpt: The pressure at which the withdrawal reaction takes place is called the reaction threshold. This threshold is expressed by the figure read on a scale graduated in cm of the apparatus used (Analgesy-meter Ugo Basile, Milan) and thus corresponds to the minimum pressure which brings about withdrawal when applied to the animal's paw.

[2] = spinal fixation time (spinal section 35 minutes after onset of asymmetry); assay type: in vivo, rat
Excerpt: (b) The action on mnemic processes is also shown by the reduction of the spinal fixation time, a test which has been described in literature (T. J. CHAMBERLAIN et al., J.Neuro-Physiol.26, (1963,no. 4), 662-673; C. GIURGEA and F. MOURAVIEFF-LESUISSE, Arch.Int.Pharmacodyn.Therap.191, (1971,no. 2), 279) as an elementary memory model and which provides pharmacological reactivity in good correlation with clinical physiopathology. In the rat, after unilateral lesion of the cerebellum, there is a postural asymmetry of the hind paws. This asymmetry may persist, even after spinal section, if the animal has passed a sufficiently long time in this position.
This time, which is called the spinal fixation time, is 45 minutes under the experimental conditions applied here.
On the other hand, if the spinal section is performed before the expiry of this period of time, for example 35 minutes after the onset of the asymmetry, the latter disappears.
No animal treated with placebos retains asymmetry under these conditions.
Inversely, any product which allows the rats to retain the asymmetry (thus effecting spinal fixation) when the spinal section is performed after 35 minutes, is considered to be active.
The compounds were all tested at a dosage of […]. The minimum active doses were not sought, except for compound No. 1 and for piracetam. […] By "number of animals" is to be understood the number of animals which responded positively to the test, in relation to the number of animals tested at the indicated dose: […]

[3] = Protection against aggressions of the hypoxic type (mortality induced by oxydipentonium chloride); assay type: in vivo, mice; settings: Mus musculus, ip, 1 h, read-out: Proportion of survivors, Animals treated
Method: Protection against aggressions of the hypoxic type was shown by a reduction of mortality induced by a curarizer, the action time of which is short, namely oxydipentonium chloride (Brevatonal). At the doses used, this curarizer brings about respiratory depression which, in turn, gives rise to a hypoxi-hypercapnic syndrome.
A compound capable of protecting the brain during this short period of hypoxia ensures survival. The compounds are administered to groups of 10 mice one hour before the injection of the curarizer. At the same time, a control group of 10 mice received physiological salt solution before the curarizer. This test has also been developed in our laboratories (see S. LEVIS et al., Arch.Int.Pharmacodyn.Therap.93, (1953,no. 1), 46-54).

[4] = Toxicity by intraperitoneal administration (Irwin's test); assay type: in vivo; settings: for Dose mg/kg (dose which brings about the death of one animal out of eight in Irwin's test): mouse
Excerpt: The compounds tested have a remarkably low toxicity.
*Dose which brings about the death of one animal out of eight in Irwin's
test (S. IRWIN, Gordon Research Conference on Medicinal Chemistry, Colby
Junior College, New London, 1959).

[5] = Toxicity when administered intravenously or orally (LD50); settings: in vivo, rat
Excerpt: Furthermore, in the rat, the compounds tested also have a low toxicity when administered intravenously or orally, as shown by the results given in the following Table V: […]

[6] = rat, subcutaneous, tested 24 hours later, read-out: Active dose mM/kg (minimum dose lowering the stimulus below 11 graduations; mM = millimole)
[7] = rat, subcutaneous, tested 24 hours later, read-out: Active dose mg/kg (minimum dose lowering the stimulus below 11 graduations)
[8] = Rattus norvegicus, ip, read-out: Active dose mM/kg (minimum active dose)
[9] = Rattus norvegicus, ip, read-out: Active dose mg/kg (minimum active dose)
[10] = iv, i.v., read-out: LD50 mg/kg (rat)
[11] = iv, i.v., read-out: LD50 - mM/kg
[12] = po, per os, read-out: LD50 mg/kg (rat)
[13] = po, per os, read-out: LD50 - mM/kg
[14] = ip, 35 min, rat, intraperitoneal, 0.32 mM/kg, read-out: Number of animals which responded positively to the test, in relation to the number of animals tested (converted)

Q: With `O=C(NCN1CCCC1=O)NCN1CCCC1=O` [Compound No. 1, 1,3-bis[(2-oxo-pyrrolidino)methyl]-urea] as the compound, how does the minimal effective dose [1, 6] read?
A: 0.01 µmol/kg

Q: What about the minimal effective dose [1, 7] of the same compound?
A: 0.0025 mg/kg

Q: And the minimal effective dose [2, 8]?
A: 100 µmol/kg

Q: And the minimal effective dose [2, 9]?
A: 25 mg/kg

Q: And the responders at 100 µM, 25 mg/kg ([2]; ip, 35 min, rat, intraperitoneal, 0.1 mM/kg (25.0 mg/kg), read-out: Number of animals which responded positively to the test, in relation to the number of animals tested (converted))?
A: 63.6%

Q: And the “activity relative to piracetam (spinal fixation time)” value ([2]; rat, intraperitoneal)?
A: more active than piracetam

Q: What about the responders at 32 µM, 32 µmol/kg [3] of the same compound?
A: 70%

Q: And the responders at 100 µM, 100 µmol/kg [3]?
A: 60%

Q: What about the responders at 2.5 mg/kg [3] of the same compound?
A: 33.3%

Q: What about the “Dose mM/kg - mouse (dose which brings about the death of one animal out of eight in Irwin's test)” value (“Dose mM/kg - mouse” for short) [4] of the same compound?
A: > 6 mM/kg

Q: What about the “Dose mg/kg (dose which brings about the death of one animal out of eight in Irwin's test)” value (“Dose mg/kg” for short) [4] of the same compound?
A: > 1530 mg/kg

Q: What about the LD50 [5, 10] of the same compound?
A: > 5600 mg/kg

Q: And the LD50 [5, 11]?
A: > 22000 µmol/kg

Q: And the LD50 [5, 12]?
A: > 10000 mg/kg

Q: And the LD50 [5, 13]?
A: > 39000 µmol/kg

Q: For `O=C(NCN1CCCCCC1=O)NCN1CCCCCC1=O` [Compound No. 4, 1,3-bis[(hexahydro-2-oxo-1H-azepin-1-yl)methyl]-urea], which minimal effective dose [1, 6] is on record?
A: 0.005 µmol/kg

Q: And the minimal effective dose [1, 7]?
A: 0.0015 mg/kg

Q: And the responders at 320 µM, 320 µmol/kg [2, 14]?
A: 66.7%

Q: And the “Dose mM/kg - mouse” value [4]?
A: 3 mM/kg

Q: And the “Dose mg/kg” value [4]?
A: 930 mg/kg

Q: Which results are given for `CC1C(=O)N(CNC(=O)NCN2CC(c3ccc(Cl)cc3)C(C)C2=O)CC1c1ccc(Cl)cc1` (stereo not shown) [Compound No. 7, 1,3-bis[(4-p-chlorophenyl-3-methyl-2-oxo-pyrrolidino)methyl]-urea]?
A: minimal effective dose [1, 6]: 5 µmol/kg; minimal effective dose [1, 7]: 1.01 mg/kg; responders at 320 µM, 320 µmol/kg [2, 14]: 66.7%; Dose mM/kg - mouse (dose which brings about the death of one animal out of eight in Irwin's test) [4]: > 3 mM/kg; Dose mg/kg (dose which brings about the death of one animal out of eight in Irwin's test) [4]: > 1509 mg/kg

Q: For `CC1CCC(=O)N1CNC(=O)NCN1C(=O)CCC1C` (stereo not shown) [Compound No. 8, 1,3-bis[(5-methyl-2-oxo-pyrrolidino)methyl]-urea], which minimal effective dose [1, 6] is on record?
A: 5 µmol/kg

Q: What about the minimal effective dose [1, 7] of the same compound?
A: 1.41 mg/kg

Q: And the responders at 320 µM, 320 µmol/kg [2, 14]?
A: 57.1%

Q: And the “Dose mM/kg - mouse” value [4]?
A: > 3 mM/kg

Q: What about the “Dose mg/kg” value [4] of the same compound?
A: > 746 mg/kg

Q: With `CC1CC(=O)N(CNC(=O)NCN2C(=O)CC(C)C2C)C1C` (stereo not shown) [compound 14, 1,3-bis[(4,5-dimethyl-2-oxo-pyrrolidino)methyl]-urea] as the compound, how does the minimal effective dose [1, 6] read?
A: 10 µmol/kg

Q: And the minimal effective dose [1, 7]?
A: 3.1 mg/kg

Q: What about the responders at 100 µM, 100 µmol/kg ([3]; mice, intraperitoneal, 0.1 mM/kg, one hour before the curarizer, control animals 3/20 (1), 1/10 (2, 18, 26), 0/10 (14, 32), 2/10 (28)) of the same compound?
A: 50%

Q: And the “Dose mM/kg - mouse” value [4]?
A: > 3 mM/kg

Q: And the “Dose mg/kg” value [4]?
A: 930 mg/kg

Q: Which results are given for `O=C(NCCN1CCCC1=O)NCCN1CCCC1=O` [compound 20, 1,3-bis[2-(2-oxo-pyrrolidino)ethyl]-urea]?
A: minimal effective dose [1, 6]: 0.05 µmol/kg; minimal effective dose [1, 7]: 0.014 mg/kg; responders at 320 µM, 320 µmol/kg [2, 14]: 42.9%; Dose mM/kg - mouse (dose which brings about the death of one animal out of eight in Irwin's test) [4]: > 3 mM/kg; Dose mg/kg (dose which brings about the death of one animal out of eight in Irwin's test) [4]: > 846 mg/kg

Q: Which results are given for `CCC(CNC(=O)NCC(CC)N1CCCC1=O)N1CCCC1=O` (stereo not shown) [compound 22]?
A: minimal effective dose [1, 6]: 0.02 µmol/kg; minimal effective dose [1, 7]: 0.0067 mg/kg; responders at 320 µM, 320 µmol/kg [2, 14]: 71.4%; Dose mM/kg - mouse (dose which brings about the death of one animal out of eight in Irwin's test) [4]: > 3 mM/kg; Dose mg/kg (dose which brings about the death of one animal out of eight in Irwin's test) [4]: > 1014 mg/kg

Q: Which results are given for `O=C(NCCCN1CCCC1=O)NCCCN1CCCC1=O` [compound 23, 1,3-bis[3-(2-oxo-pyrrolidino)propyl]-urea]?
A: responders at 320 µM, 320 µmol/kg [2, 14]: 50%; Dose mM/kg - mouse (dose which brings about the death of one animal out of eight in Irwin's test) [4]: > 3 mM/kg; Dose mg/kg (dose which brings about the death of one animal out of eight in Irwin's test) [4]: 931.2 mg/kg

Q: For `O=C1CCC(c2ccc(Cl)cc2)CN1CNC(=S)NCN1CC(c2ccc(Cl)cc2)CCC1=O` (stereo not shown) [compound 24, 1,3-bis[(5-p-chlorophenyl-2-oxo-piperidino)methyl]-2-thiourea], which responders at 320 µM, 320 µmol/kg [2, 14] is on record?
A: 42.9%

Q: And the “Dose mM/kg - mouse” value [4]?
A: > 3 mM/kg

Q: And the “Dose mg/kg” value [4]?
A: > 1039 mg/kg

Q: What does the source list for `CC1CCN(CNC(=O)NCN2CCC(C)C2=O)C1=O` (stereo not shown) [compound 34, 1,3-bis[(3-methyl-2-oxo-1-pyrrolidino)methyl]-urea]?
A: responders at 320 µM, 320 µmol/kg [2, 14]: 50%; Dose mM/kg - mouse (dose which brings about the death of one animal out of eight in Irwin's test) [4]: > 6 mM/kg; Dose mg/kg (dose which brings about the death of one animal out of eight in Irwin's test) [4]: > 1692 mg/kg

Q: For `NC(=O)CN1CCCC1=O` [piracetam, 2-oxo-1-pyrrolidineacetamide, reference compound], which minimal effective dose ([1]; Rattus norvegicus, 24 h, read-out: Active dose mM/kg (minimum dose lowering the stimulus below 11 graduations; mM = millimole)) is on record?
A: 2.5 µmol/kg

Q: What about the minimal effective dose ([1]; Rattus norvegicus, 24 h, read-out: Active dose mg/kg (minimum dose lowering the stimulus below 11 graduations)) of the same compound?
A: 3.5 mg/kg

Q: And the degree of retention ([1]; rat, compared with control animals)?
A: significant degree of retention

Q: What about the responders at 320 µM, 320 µmol/kg ([2]; Rattus norvegicus, ip, 35 min, read-out: Number of animals which responded positively to the test, in relation to the number of animals tested) of the same compound?
A: 55.6%

Q: What about the minimal effective dose [2, 8] of the same compound?
A: 320 µmol/kg

Q: And the minimal effective dose [2, 9]?
A: 45 mg/kg

Q: And the responders at 320 µM, 320 µmol/kg [3]?
A: 10%

Q: And the responders at 142 mg/kg [3]?
A: 40%

Q: What about the responders at 454 mg/kg ([3]; mice, intraperitoneal, 454 mg/kg (3.2 mM/kg), one hour before the curarizer, control animals 1/10) of the same compound?
A: 80%

Q: What about the LD50 [5, 10] of the same compound?
A: > 8000 mg/kg

Q: What about the LD50 [5, 11] of the same compound?
A: > 56000 µmol/kg

Q: What about the LD50 [5, 12] of the same compound?
A: > 10000 mg/kg

Q: What about the LD50 [5, 13] of the same compound?
A: > 70000 µmol/kg
